Patent US6964766B1, “Peptides for use in immunotherapy of autoimmune diseases” (Akzo Nobel N.V., priority 1998, dated 2005)
Where “and” joins values, the source holds several entries; their conditions need not be identical. Equal entries are not always repeated. Entries after “also recorded” stand apart in the source; their conditions may differ. No end group written: not given here.

Columns and labels:
Balb/c mice = details: single injection in the chest region, μg amounts of protein in IFA; cited from earlier work
PBMC from RA patients [1] = test: recognition by PBMC ([3H]thymidine incorporation, stimulation index); format: cell-based, human; details: Table 3b, per donor (169, 455, 447, 327)
PBMC from RA patients [2] = test: as above; format: cell-based, human
Description: Peripheral blood mononuclear cells (PBMC) were isolated from heparinized peripheral blood by standard centrifugation on Ficoll-Paque (Pharmacia, Uppsala, Sweden). Cells were suspended in wells of a 24 well plate in a concentration of 5×10^5 cells per ml. Cells were incubated in medium alone or in the presence of 10 or 50 μg/ml peptide antigen (YKL-39 (266-278)). Cultures were incubated for 6 days at 37° C. in a humidified atmosphere of 5% CO2. Cells were then suspended and 100 or 150 μl volumes of medium was distributed in 4-fold in wells of a 96-well roundbottomed plate. Cells were then pulsed with 0.5 μCi (1.85×10^4 Bq) [3H]thymidine ([3H]TdR) and 18 hr later incorporated radioactivity was measured. Results as shown in table 3 are expressed as stimulation indices (SI) (antigen-specific counts/background counts).

[3] = test system: HLA-DRB1*0401-restricted hybridomas specific for HC gp-39 (263-275) (8B12, 14G11, 20H5); test: stimulation of HC gp-39 (263-275)-specific T-cell hybridomas (IL-2 production); format: cell-based, mouse; details: presented by DRB1*0401 EBV-transformed B cells, 48 hr
Description: To test the cross reactivity of the 3 different, HC gp39-specific hybridoma cell lines with the YKL-39 or the chitotriosidase peptide, 5×10^4 hybridoma cells and 2×10^5 irradiated (12000 RAD), EBV-transformed B cells carrying the DRB1*0401 specificity were incubated in 150 μl volumes in wells of a round-bottomed microtiter plate. Peptide antigen (HC gp-39 (263-275), YKL-39 (266-278), chitotriosidase (269-282) or a control peptide) was added in 50 μl volumes to duplicate wells. Forty-eight hr later 100 μl of the culture supernatant was assayed for IL-2 production using a sandwich ELISA with Pharmingen antibodies specific for mouse IL-2.

[4] = test system: HC gp-39 (263-275) induced DTH response; test: HC gp-39 (263-275)-specific DTH assay, tolerance induction by nasal application; format: in vivo, Balb/c mice; details: for tolerance: intranasal pretreatment 50, 10 or 2 micrograms, sensibilisation and challenge with HC gp-39 (263-275)
Source text: FIG. 2a, 2b, 2c In vivo tolerization with HC gp-39 (263-275) or YKL-39 ([…]) • Balb/c mice were tolerized by intranasal application of 50, 10 or 2 micrograms of HC gp-39 (263-275), SEQ ID NO: 3, (FIG. 2b) or YKL-39 (266-278) (FIG. 2c) followed by immunization with HC gp-39 (263-275). Mice that were pretreated with saline or that were left untreated were included as controls (FIG. 2a).
A HC gp-39 (263-275)-specific DTH assay suitable to monitor tolerance induction with peptide antigens was developed. […] This peptide-based DTH system was used to detect modulation of the DTH response by nasal application of HC gp-39 (263-275) peptide.

[5] = molecular target: T1, HLA-DRB1*0401-encoded molecules (Homo sapiens, UniProt P01903+P01911, A100K/A169T/F76Y/I96L/K127E/L162R/M171V/N62H/P40V/Q125Y/R42H/S133A/S149N/S66Y/V115G/V209L/W38E); test: competition peptide HLA-DR binding assay
T1 construct: HLA-DR4 (DRB1*0401) molecules were purified from the homozygous EBV-transformed human B lymphoblastoid cell lines Huly138IC2; endogenous in cells; host or cells: homozygous EBV-transformed human B lymphoblastoid cell line Huly138IC2

Substance	arthritogenicity (Balb/c mice)	SI 10 μg/ml (PBMC from RA patients [1]; 10 μg/ml antigen)	SI 50 μg/ml (PBMC from RA patients [1]; 50 μg/ml antigen)	recognition by PBMC (in words) (PBMC from RA patients [2]; RA patients)	SI 10 μg/ml (PBMC from RA patients [2]; Table 3a, per donor (RA patients), 10 μg/ml peptide, 6 days, SI = antigen-specific counts/background counts)	SI 50 μg/ml (PBMC from RA patients [2]; Table 3a, per donor (RA patients), 50 μg/ml peptide, 6 days)	SI 10 μg/ml (PBMC from RA patients [2]; Table 3b, per donor (169, 455, 447, 327), 10 μg/ml antigen)	SI 50 μg/ml (PBMC from RA patients [2]; Table 3b, per donor (169, 455, 447, 327), 50 μg/ml antigen)	responder / non-responder (PBMC from RA patients [2]; per donor, RA patients, SI >= 5 regarded positive)	activation of T-cell hybridomas, IL-2 production (in words) [3]	tolerance [4]	tolerance ([4]; listed as YKL-39 266-278)	downmodulation of the DTH response (in words) ([4]; nasal application, Balb/c mice immunised with HC gp-39 (263-275) in IFA)	binding affinity to DRB1*0401 (in words) [5]
HC gp-39: human cartilage glycoprotein-39, a protein of 362 amino acids, target autoantigen in rheumatoid arthritis	induced a chronic joint inflammation	1 and 12 and 24 and 45	1 and 19 and 44 and 95	–	–	–	–	–	–	–	–	–	–	–
HSFTLASAETTVG [YKL-39 (266-278), HSFTLASAETTVG]	–	–	–	readily recognized	9 and 15 and <2 (3×) and 4 and 3 (2×) and 19	9 and 4 and <2 (4×) and 27 and 25 and 58	1 and 6 and 27 and 20	2 and 5 and 32 and 35	R (R = responder); also recorded: NR (NR = non-responder)	response similar to HC gp-39 (263-275)	yes	effective as a tolerogen	more enhanced downmodulation	very high affinity
